Converted amounts (≈) assume the structure as drawn. The source made the active and inactive calls. The rule behind the calls is not given here.
Assays:
[1] = target: RAF proto-oncogene serine/threonine-protein kinase (Homo sapiens, UniProt P04049); test: Inhibition of human recombinant cRAF measured after 1 hr by TR-FRET assay
NCI-H358 [2] = test: Growth inhibition of human H358 cells expressing KRAS […] mutant measured after 3 days by Cell-titer Glo assay; type: functional; settings: NCI-H358, 72 h, time 3 day
[3] = Hepatic clearance in rat liver microsomes; type: ADME, Microsome
Cytochrome P450 3A4 [4] = target: T1, Cytochrome P450 3A4 (Homo sapiens, UniProt P08684); test: Inhibition of CYP3A4 in human liver microsomes using midazolam as substrate; parameters: species or system Microsome
T1 sequence (P08684 whole entry): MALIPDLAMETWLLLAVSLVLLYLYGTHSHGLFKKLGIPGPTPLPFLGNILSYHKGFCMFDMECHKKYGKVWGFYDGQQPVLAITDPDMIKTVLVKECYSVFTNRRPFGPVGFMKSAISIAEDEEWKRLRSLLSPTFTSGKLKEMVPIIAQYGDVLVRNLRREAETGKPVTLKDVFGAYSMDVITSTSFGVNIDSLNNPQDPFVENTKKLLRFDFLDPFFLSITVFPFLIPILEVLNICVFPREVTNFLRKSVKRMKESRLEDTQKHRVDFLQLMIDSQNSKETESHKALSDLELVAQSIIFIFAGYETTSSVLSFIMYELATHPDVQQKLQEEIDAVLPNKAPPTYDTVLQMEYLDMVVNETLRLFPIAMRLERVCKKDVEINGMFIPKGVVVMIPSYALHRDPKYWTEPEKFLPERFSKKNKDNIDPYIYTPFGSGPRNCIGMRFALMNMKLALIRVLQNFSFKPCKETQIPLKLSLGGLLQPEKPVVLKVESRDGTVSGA

Cytochrome P450 2D6 = Cytochrome P450 2D6 (Homo sapiens, UniProt P10635); test: Inhibition of CYP2D6 in human liver microsomes; parameters: species or system Microsome
Chain of Cytochrome P450 2D6 (P10635 whole entry): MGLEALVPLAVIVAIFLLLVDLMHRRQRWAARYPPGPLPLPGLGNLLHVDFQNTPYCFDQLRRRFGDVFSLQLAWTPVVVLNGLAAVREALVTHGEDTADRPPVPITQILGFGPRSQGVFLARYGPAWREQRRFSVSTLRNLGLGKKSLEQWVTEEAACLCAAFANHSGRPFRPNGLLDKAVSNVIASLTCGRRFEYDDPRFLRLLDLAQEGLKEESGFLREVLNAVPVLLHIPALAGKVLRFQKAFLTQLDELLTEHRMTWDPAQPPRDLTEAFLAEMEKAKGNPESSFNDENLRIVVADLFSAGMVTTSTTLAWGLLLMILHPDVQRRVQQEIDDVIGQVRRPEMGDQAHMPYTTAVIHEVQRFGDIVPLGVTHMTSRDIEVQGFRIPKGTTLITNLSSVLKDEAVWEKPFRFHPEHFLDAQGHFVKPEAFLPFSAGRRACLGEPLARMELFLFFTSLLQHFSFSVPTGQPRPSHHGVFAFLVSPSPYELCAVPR

[5] = Solubility of compound in PBS at pH 7.4; type: physicochemical
[6] = Stability of compound in Dog liver microsomes assessed as half life; type: ADME, Canis lupus familiaris, Microsome
[7] = Stability of compound in rat liver microsomes assessed as half life; type: ADME, Microsome
[8] = Hepatic clearance in dog liver microsomes; type: ADME, Canis lupus familiaris, Microsome
[9] = Stability of compound in human liver microsomes assessed as half life; type: ADME, Microsome
[10] = Hepatic clearance in human liver microsomes; type: ADME, Microsome
Cytochrome P450 1A2 = target: T2, Cytochrome P450 1A2 (Homo sapiens, UniProt P05177); test: Inhibition of CYP1A2 in human liver microsomes; type: ADME, Microsome
T2 sequence (P05177 whole entry): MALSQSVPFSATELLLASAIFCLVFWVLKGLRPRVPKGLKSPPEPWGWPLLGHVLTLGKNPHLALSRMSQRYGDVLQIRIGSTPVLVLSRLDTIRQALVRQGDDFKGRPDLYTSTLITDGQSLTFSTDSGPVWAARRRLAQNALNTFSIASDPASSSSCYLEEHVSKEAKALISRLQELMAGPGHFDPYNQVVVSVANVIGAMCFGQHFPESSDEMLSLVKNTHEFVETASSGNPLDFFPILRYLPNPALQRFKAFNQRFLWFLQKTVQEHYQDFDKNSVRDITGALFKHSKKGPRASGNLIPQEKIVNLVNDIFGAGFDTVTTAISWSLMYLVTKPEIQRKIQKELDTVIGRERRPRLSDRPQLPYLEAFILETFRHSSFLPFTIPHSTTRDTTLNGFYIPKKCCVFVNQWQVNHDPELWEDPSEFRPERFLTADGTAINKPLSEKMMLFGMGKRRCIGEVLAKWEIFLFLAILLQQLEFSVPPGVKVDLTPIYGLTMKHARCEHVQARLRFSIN

[11] = Hepatic clearance in mouse liver microsomes; type: ADME, Microsome
[12] = target: Voltage-gated inwardly rectifying potassium channel KCNH2 (Homo sapiens, UniProt Q12809); test: Inhibition of hERG; type: toxicity
Chain of Voltage-gated inwardly rectifying potassium channel KCNH2 (Q12809 whole entry): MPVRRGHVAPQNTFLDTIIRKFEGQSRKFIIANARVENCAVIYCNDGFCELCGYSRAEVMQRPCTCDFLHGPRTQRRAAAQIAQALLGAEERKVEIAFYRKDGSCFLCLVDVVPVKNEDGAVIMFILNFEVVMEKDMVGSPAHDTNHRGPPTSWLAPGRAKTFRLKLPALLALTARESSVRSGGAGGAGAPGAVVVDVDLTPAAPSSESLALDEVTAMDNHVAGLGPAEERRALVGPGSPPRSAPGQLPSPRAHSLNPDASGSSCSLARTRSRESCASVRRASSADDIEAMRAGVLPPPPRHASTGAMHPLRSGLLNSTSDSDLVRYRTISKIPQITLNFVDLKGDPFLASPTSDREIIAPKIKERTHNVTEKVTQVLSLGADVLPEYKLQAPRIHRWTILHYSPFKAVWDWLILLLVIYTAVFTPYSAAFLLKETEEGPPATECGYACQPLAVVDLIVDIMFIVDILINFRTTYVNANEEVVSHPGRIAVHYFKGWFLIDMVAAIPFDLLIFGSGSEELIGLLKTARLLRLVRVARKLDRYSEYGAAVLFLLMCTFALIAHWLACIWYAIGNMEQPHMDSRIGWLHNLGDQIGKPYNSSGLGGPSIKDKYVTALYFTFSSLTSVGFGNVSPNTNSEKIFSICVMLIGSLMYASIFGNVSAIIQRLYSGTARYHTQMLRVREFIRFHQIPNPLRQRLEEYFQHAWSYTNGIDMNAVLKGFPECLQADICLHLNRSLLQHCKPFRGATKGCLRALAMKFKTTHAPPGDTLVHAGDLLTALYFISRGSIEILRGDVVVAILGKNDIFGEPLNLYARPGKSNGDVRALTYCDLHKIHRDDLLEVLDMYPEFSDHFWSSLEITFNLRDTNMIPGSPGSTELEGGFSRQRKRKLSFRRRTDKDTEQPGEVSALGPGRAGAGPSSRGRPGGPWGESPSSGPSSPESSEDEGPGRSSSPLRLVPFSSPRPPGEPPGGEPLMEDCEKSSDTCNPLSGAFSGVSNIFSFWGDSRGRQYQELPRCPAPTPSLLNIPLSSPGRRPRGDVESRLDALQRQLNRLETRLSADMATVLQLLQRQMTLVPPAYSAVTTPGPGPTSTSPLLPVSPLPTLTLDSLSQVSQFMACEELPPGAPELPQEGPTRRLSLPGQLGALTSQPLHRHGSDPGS

NCI-H358 [13] = test: Effect on Erk signalling pathway in human H358 cells assessed as increase in Erk phosphorylation by HTRF assay; type: functional, cell-based
Cytochrome P450 2C9 = Cytochrome P450 2C9 (Homo sapiens, UniProt P11712); test: Inhibition of CYP2C9 in human liver microsomes; type: ADME, Microsome
Chain of Cytochrome P450 2C9 (P11712 whole entry): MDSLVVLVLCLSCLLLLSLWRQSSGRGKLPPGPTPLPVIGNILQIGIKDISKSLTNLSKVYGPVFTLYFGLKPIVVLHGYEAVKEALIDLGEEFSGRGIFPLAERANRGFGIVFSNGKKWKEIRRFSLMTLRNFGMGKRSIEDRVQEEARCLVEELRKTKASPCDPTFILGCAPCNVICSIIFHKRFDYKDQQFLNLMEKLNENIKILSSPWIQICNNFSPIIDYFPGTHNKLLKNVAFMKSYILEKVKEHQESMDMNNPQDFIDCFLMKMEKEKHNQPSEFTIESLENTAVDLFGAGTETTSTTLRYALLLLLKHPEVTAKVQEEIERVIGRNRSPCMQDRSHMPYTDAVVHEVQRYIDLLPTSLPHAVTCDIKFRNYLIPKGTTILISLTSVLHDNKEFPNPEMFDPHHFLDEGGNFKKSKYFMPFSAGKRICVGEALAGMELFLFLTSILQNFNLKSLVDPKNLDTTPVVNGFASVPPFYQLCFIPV

Cytochrome P450 2C19 = Cytochrome P450 2C19 (Homo sapiens, UniProt P33261); test: Inhibition of CYP2C19 in human liver microsomes; type: ADME, Microsome
Chain of Cytochrome P450 2C19 (P33261 whole entry): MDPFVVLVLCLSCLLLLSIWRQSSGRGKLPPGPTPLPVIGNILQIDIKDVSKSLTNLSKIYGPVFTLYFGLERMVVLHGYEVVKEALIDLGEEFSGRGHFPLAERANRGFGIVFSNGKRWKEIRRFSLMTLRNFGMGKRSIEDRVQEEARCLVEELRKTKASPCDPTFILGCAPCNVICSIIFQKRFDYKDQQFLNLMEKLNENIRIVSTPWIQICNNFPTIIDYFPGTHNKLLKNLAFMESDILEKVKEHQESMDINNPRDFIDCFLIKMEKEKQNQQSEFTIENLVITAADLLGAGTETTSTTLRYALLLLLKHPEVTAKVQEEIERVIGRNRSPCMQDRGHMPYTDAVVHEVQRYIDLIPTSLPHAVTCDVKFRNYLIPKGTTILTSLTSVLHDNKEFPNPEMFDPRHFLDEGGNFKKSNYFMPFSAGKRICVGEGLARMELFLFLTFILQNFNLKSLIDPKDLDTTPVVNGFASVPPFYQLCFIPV

[14] = Stability of compound in mouse liver microsomes assessed as half life; type: ADME, Microsome
Cytochrome P450 3A4 [15] = target: T1, Cytochrome P450 3A4; test: Inhibition of CYP3A4 in human liver microsomes using testosterone as substrate; parameters: species or system Microsome

Chain of RAF proto-oncogene serine/threonine-protein kinase (P04049 whole entry): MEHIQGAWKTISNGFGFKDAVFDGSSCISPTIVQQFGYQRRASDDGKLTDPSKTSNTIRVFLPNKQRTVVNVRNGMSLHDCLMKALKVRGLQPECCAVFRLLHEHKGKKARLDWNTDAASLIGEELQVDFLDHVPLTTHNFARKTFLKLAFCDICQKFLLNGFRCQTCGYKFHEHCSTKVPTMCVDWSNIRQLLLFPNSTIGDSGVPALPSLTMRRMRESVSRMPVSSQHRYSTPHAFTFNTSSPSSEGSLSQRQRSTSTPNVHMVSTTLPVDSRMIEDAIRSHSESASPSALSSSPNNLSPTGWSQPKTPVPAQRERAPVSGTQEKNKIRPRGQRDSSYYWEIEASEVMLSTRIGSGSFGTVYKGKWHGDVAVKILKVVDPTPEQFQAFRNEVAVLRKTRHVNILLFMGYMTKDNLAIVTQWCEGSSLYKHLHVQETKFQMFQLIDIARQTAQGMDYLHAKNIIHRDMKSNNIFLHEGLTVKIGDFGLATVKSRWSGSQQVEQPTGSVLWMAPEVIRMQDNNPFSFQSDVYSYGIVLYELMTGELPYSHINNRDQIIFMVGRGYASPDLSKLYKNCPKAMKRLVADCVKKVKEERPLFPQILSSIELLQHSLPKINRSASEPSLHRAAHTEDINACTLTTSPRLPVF

SMILES	IC50 [1]	GI50 (NCI-H358 [2])	further results
Cc1ccc(NC(=O)c2ccnc(C(F)(F)F)c2)cc1-c1ccc2c(c1)C(=O)CC1(CCOCC1)O2	0.037 µM	9.7 µM	
Cc1ccc(NC(=O)c2ccnc(C(F)(F)F)c2)cc1-c1ccc2c(c1)OC1(CCOCC1)C(=O)N2	0.014 µM	10 µM	
Cc1ccc(NC(=O)c2ccnc(C(F)(F)F)c2)cc1-c1cnc2c(c1)OC1(CCOCC1)NC2=O	0.028 µM	8.7 µM	
Cc1ccc(NC(=O)c2ccnc(C(F)(F)F)c2)cc1-c1ccc2c(c1)OC1(CCOCC1)CC2N (configuration not stated)	0.021 µM	6.6 µM	
Cc1ccc(NC(=O)c2ccnc(C(F)(F)F)c2)cc1-c1ccc2c(c1)OC1(CCCOC1)NC2=O (configuration not stated)	0.005 µM	4.9 µM	

Second part, led by results:

IC50 [1]	GI50 (NCI-H358 [2])	SMILES	further results
0.06 µM	19 µM	Cc1ccc(NC(=O)c2ccnc(C(F)(F)F)c2)cc1-c1ccc2c(c1)NC1(CCOCC1)NS2(=O)=O	
0.0048 µM	15 µM	Cc1ccc(NC(=O)c2ccnc(C(F)(F)F)c2)cc1-c1ccc2c(c1)NC1(CCOCC1)NC2=O	
0.015 µM	4.2 µM	Cc1ccc(NC(=O)c2ccnc(C(F)(F)F)c2)cc1-c1ccc2c(c1)OC1(CCOCC1)CC2=O	CLH [3]: 52.2 µL/min/g; IC50 (Cytochrome P450 3A4 [4]): > 30 µM; IC50 (Cytochrome P450 2D6): > 30 µM; solubility [5]: 0.46 µM (≈ 0.228 µg/mL); half-life [6]: 32.4 min; half-life [7]: 18.5 min; CLH [8]: 20.6 µL/min/g; half-life [9]: 8.1 min; CLH [10]: 18.3 µL/min/g; IC50 (Cytochrome P450 1A2): > 30 µM; CLH [11]: 61.6 µL/min/g; IC50 [12]: 3.4 µM; Activity (NCI-H358 [13]): Active; IC50 (Cytochrome P450 2C9): > 30 µM; IC50 (Cytochrome P450 2C19): > 30 µM; half-life [14]: 28.1 min; IC50 (Cytochrome P450 3A4 [15]): > 30 µM
0.029 µM	7.9 µM	Cc1ccc(NC(=O)c2ccnc(C(F)(F)F)c2)cc1-c1ccc2c(c1)SC1(CCOCC1)CC2=O	
0.0043 µM	8.3 µM	Cc1ccc(NC(=O)c2ccnc(C(F)(F)F)c2)cc1-c1ccc2c(c1)OC1(CCOC1)NC2=O (configuration not stated)	

Source: ChEMBL document CHEMBL5143623, “Discovery of novel spiro compound as RAF kinase inhibitor with in vitro potency against KRAS mutant cancer” (Bioorg Med Chem Lett, 2022)
